Measurements reported in publication PMC3567233 (Biochemistry, 2012).

System: M. bovis BCG transmembrane potential (ΔΨ)
Assay type: cell-based, Mycobacterium bovis BCG
Conditions: pH 7.2

Compound: N#CC(C#N)=NNc1cccc(Cl)c1 [CCCP, carbonyl cyanide m-chlorophenylhydrazone]
- DiOC2 red / green fluorescence ratio, M. bovis: 0.086±0.003
